Where two headings read alike, the source gives them in different places.
Test system: Bacillus sp. A30-1 ATCC No. 53841 thermostable lipase
Conditions: 30° C., peroxide removed by dialysis before assay; for residual activity (of the original activity) after incubation with hydrogen peroxide: 0.5% hydrogen peroxide
Procedure: Lipase production was routinely assayed by monitoring the fatty acid released from corn oil. The assay is based on the fact that the dye Rhodamine 6G in benzene solution reacts with an acid to form a chromophore which can be spectrophotometrically quantified. One tenth mL of cell free culture broth (obtained by removing cells by centrifugation) was mixed with 0.02 mL of a 25% corn oil solution in 100 mM Tris-Hcl buffer (pH 9.5) and then incubated at 60° C. for 1 hr. After appropriate time the reaction was stopped with the addition of 0.1N HCl in 95% ethanol. The resulting fatty acids were extracted with petroleum ether, and evaporated to dryness under vacuum. Subsequently, diluted Rhodamine 6G stock solution was added. After fifteen minutes at room temperature the absorbance of the resulting reaction mixture was read at 515 nm. One unit of lipase is defined as the amount that will liberate 1 μmole of fatty acid per hour under the assay condition.
To an aliquot of enzyme solution containing a known amount of activity, different amounts of hydrogen peroxide were added to final concentration of 0.5, 1, 2, and 4% respectively. These were kept at 30° C. for different periods of time. Then hydrogen peroxide contained in enzyme solution was eliminated by dialysis against water. Residual activities were measured by the analytical methods described above.

With `OO` [hydrogen peroxide] the “residual activity (of the original activity) after incubation with hydrogen peroxide” value (1 hr) was 100%, the “residual activity (of the original activity) after incubation with hydrogen peroxide” value (19 hrs) was 60% and the “residual activity after incubation with hydrogen peroxide” value (4% hydrogen peroxide, 5 hrs) was 75%.
